Entries after “also recorded” stand apart in the source; their conditions may differ.
Tested on: human PBMCs co-cultured with OVCAR8 cells
Assay: Co-culture of OVCAR8 cells and stimulated human PBMCs, 1:10 OVCAR8:PBMC ratio
Assay type: cell-based
Conditions: for Immunosuppressive effect (reduction in TNFα/cytokines) compared with controls rPD-L1 and MN_Null: 1:10 OVCAR8:PBMC co-culture, FIG. 10D; for TNFα levels / IL-2 levels: 1:10 OVCAR8:PBMC, 24 hours, vs untreated co-culture control; for TNFα levels: ELISA, FIG. 10C; for IL-2 levels: FIG. 10B
Experimental: For this model, PBMCs and cancer cells were both stimulated prior to co-culture to promote expression of PD-1 and PD-L1, respectively.
OVCAR8 cells, generously provided by the Gottesman Lab (National Institutes of Health, Bethesda, MD, USA), and MDA-MB-231 cells (American Type Culture Collection, Rockville, MD, USA) were cultured in Gibco RPMI 1640 media (ThermoFisher Scientific, Cat. No. 11-875-093) supplemented with 10% Gibco fetal bovine serum (ThermoFisher Scientific, Cat. No. 10437028), and 1% penicillin/streptomycin (10,000 U/mL pen, 10 mg/mL strcp) from MilliporeSigma (Burlington, MA, USA, Cat. No. P4333). Cells were cultured at 37° C. and 5% CO2. Passage number was kept below 3 for co-culture assay. Human peripheral blood mononuclear cells were purchased frozen from […] PBMCs were thawed according to manufacturer's instructions one day before co-culture and cultured in the same media and conditions as cancer cell lines.
The next day, cells were stimulated with 100 ng/mL IFNγ and two vials of human PBMCs were thawed. On Day 3, concentrations of PBMCs and OVCAR8 cells (harvested from a control well) were measured using the QuadCount Automated Cell Counter. The concentration of PBMCs required for a 1:10 OVCAR8:PBMC ratio was calculated from the OVCAR8 concentration. PBMCs were plated on a separate 24-well plate (1 mL/well) and stimulated with 5 μg/mL of anti-CD3 and 5 μg/mL of anti-CD28 for 30 minutes before drug treatment. […] After 30 minutes, media was removed from OVCAR8 wells without treatment, and replaced with 1 mL of treated PBMCs. After 24 hours, the supernatants were collected from each well, and centrifuged at 10,000×g for 5 minutes to remove any remaining cells.
Briefly, samples from co-culture experiments with excess OVCAR8 ratios were diluted 1:10 in assay buffer, and samples from co-culture experiments with excess PBMC ratios were diluted 1:5 in assay buffer. Next, 10 μL of the diluted samples were mixed with 10 μL of an IL-2 antibody-oligonucleotide conjugate mixture and added to a 96-well working plate. Samples with excess OVCAR8 ratios were allowed to incubate overnight at 4° C. Samples with excess PBMCs were allowed to incubate for 1 hour at room temperature. Next, 80 μL of qPCR reaction mixture containing master mix and DNA ligase was added to each well. The plate was centrifuged at 2,500×g for 2 minutes. Samples were then added in triplicate (20 μL/well) to a 96-well PCR plate (ThermoFisher Scientific). PCR was run according to manufacturer's instructions using the QuantStudio 7 Pro Real-Time PCR System equipped with a 96-well, 0.2 mL block from ThermoFisher Scientific.
Remaining samples from experiments with excess PBMC ratios were analyzed using TNFα (Cat. No. 430204) ELISA MAX Deluxe Sets (BioLegend, San Diego, CA, USA) according to manufacturer's instructions. Briefly, 96-well Nunc™ MaxiSorp™ ELISA Plates (BioLegend, Cat. No. 423501) were coated with capture antibodies for TNFα and incubated overnight at 4° C. The next day, the plate was washed 4× with 1×PBS+0.05% Tween-20 (PBS-T). To block non-specific binding, 200 μL of assay dilutant buffer was added to each well and the plate was incubated at room temperature for 1 hour on a shaker. The plate was washed as before, and 100 μL of the samples or standards were added to each well in triplicate and incubated at room temperature for 2 hours on a shaker. The plate was washed 4× and 100 μL of detection antibody for TNFα was added to each well, and the plate was incubated at room temperature for 1 hour on a shaker. The plate was washed 4× and 100 μL of Avidin-HRP was added to each well, and the plate was incubated at room temperature for 30 minutes on a shaker.

CC[C@H](C)[C@@H]1NC(=O)[C@H](CCSC)NC(=O)[C@H](C)NC(=O)[C@H](CCCNC(=N)N)NC(=O)[C@@H](N)CSSC[C@@H](C(=O)O)NC(=O)[C@H]([C@@H](C)CC)NC(=O)[C@H](CCCNC(=N)N)N(C)C(=O)[C@H](CCCCN)NC(=O)[C@H](Cc2ccc(O)cc2)NC(=O)[C@H](CC(=O)O)NC(=O)[C@H](C)NC(=O)CNC(=O)CNC(=O)[C@H](Cc2ccc(O)cc2)NC(=O)[C@H](CO)NC1=O [SEQ ID NO. 5, CRAMISYGGADYKXIC]
Immunosuppressive effect (reduction in TNFα/cytokines) compared with controls rPD-L1 and MN_Null (listed as MN 1.4): less potent than recombinant PD-L1 | Immunosuppressive effect (reduction in TNFα/cytokines) compared with controls rPD-L1 and MN_Null (listed as MN1.4): not a significant difference in cytokine levels between the MN1.4 and rPD-L1 treatment groups; also recorded: recapitulated the biological effects of full-length PD-L1; also recorded: the same reduction in TNFα as rPD-L1 | TNFα levels (listed as MN 1.4): reduced in a dose-dependent manner | TNFα levels (listed as MN1.4): same pattern of T cell suppression was observed; also recorded: significantly decreased; also recorded: shown to decrease IL-2 and TNFα secretion; also recorded: A reduction in this cytokine was also observed | IL-2 levels (listed as MN 1.4): reduced in a dose-dependent manner | IL-2 levels (listed as MN1.4): same pattern of T cell suppression was observed; also recorded: significantly decreased; also recorded: shown to decrease IL-2 and TNFα secretion; also recorded: A dose-dependent reduction in IL-2 was observed

Reference: patent US20240327493A1 (GEORGE MASON UNIVERSITY, priority 2023, published 2024)
